Source: patent publication US20170165259A1, “COMBINED MODULATION OF IRE1” (THE REGENTS OF THE UNIVERSITY OF CALIFORNIA, priority 2014, published 2017)

Tests used:
[1] = tested on: IRE1α mutants that lack kinase activity; details: cited from earlier work
endogenous IRE1α [2] = assay: XBP1 mRNA splicing in INS-1 cells under ER stress; assay type: cell-based, rat
Procedure: (§1) FIGS. 5A-5E. […] (FIG. 5C) EtBr-stained agarose gel of XBP1 complementary DNA (cDNA) amplicons from the INS-1 cells described in (B).
(§2) To further explore how IRE1α modulators affect the kinase and RNase activities of endogenous IRE1α under ER stress, in vivo studies using INS-1 rat insulinoma cell lines, which are derived from insulin-producing pancreatic β-cell tumors and contain large well-developed ERs, were conducted.

endogenous IRE1α [3] = assay: IRE1α auto-phosphorylation immunoblot in INS-1 cells under ER stress; assay type: cell-based, rat
Procedure: as §1, §2
For protein analysis, cells were lysed in M-PER buffer (Thermo Scientific) plus complete EDTA-free protease inhibitor (Roche) and phosphatase inhibitor cocktail (Sigma). The concentration of samples was determined using BCA Protein Assay (Thermo). […] Gels were run using MES buffer and transferred onto nitrocellulose transfer membrane using an XCell II™ Blot Module. Blocking, antibody incubation, and washing were done in PBS or TBS with 0.05% Tween-20 (v/v) and 5% (w/v) non-fat dry milk or BSA, or blocking buffer (Licor-Odyssey). Antibodies used were: mouse anti-Actin (Sigma-Aldrich); rabbit anti-cleaved Caspase-2 (Abcam); mouse anti-GAPDH, anti-c-Myc, anti-rabbit, anti-proinsulin, and anti-IRE1α (Santa Cruz Biotechnology); anti-phospho-IRE1α and anti-full length Caspase-2 (Novus Biologicals); and rabbit anti-Caspase-3, anti-JNK, anti-eIF2a, anti-phospho-eIF2a, and mouse anti-phospho-JNK (Cell Signaling). Antibody binding was detected by using near-infrared-dye-conjugated secondary antibodies (Licor) on the LI-COR Odyssey scanner or visualized by capturing on a CL-XPosure film using ECL SuperSignal West Dura Extended Duration Substrate (both from Thermo Scientific).

IRE1α* [4] = target: T1, IRE1α* (Homo sapiens, UniProt O75460); assay: IRE1α* autophosphorylation kinase assay in vitro; assay type: biochemical
T1 construct: human IRE1α (residues 469-977, IRE1α*); made in house; host or cells: SF9 insect cells, Bac-to-Bac baculovirus
T1 sequence (O75460 469-977): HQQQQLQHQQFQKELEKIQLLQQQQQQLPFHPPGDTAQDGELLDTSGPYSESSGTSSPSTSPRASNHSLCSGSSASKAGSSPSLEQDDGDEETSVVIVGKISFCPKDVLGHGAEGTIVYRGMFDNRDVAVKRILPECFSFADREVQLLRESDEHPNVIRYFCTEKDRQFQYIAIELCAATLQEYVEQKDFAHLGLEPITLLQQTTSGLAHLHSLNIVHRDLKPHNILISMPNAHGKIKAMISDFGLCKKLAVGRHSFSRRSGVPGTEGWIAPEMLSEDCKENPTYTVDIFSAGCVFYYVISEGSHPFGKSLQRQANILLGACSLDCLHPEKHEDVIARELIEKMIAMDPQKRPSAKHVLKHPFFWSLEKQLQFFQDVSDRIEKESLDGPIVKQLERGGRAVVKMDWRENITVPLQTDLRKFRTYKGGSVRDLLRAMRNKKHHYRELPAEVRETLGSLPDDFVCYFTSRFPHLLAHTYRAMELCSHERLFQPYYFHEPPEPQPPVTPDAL

IRE1α* [5] = target: T1, IRE1α*; assay: XBP1 RNA minisubstrate (FRET-quenched) RNase assay; assay type: biochemical; details: for IRE1α* RNase activity (XBP1 RNA cleavage), effect in words: in vitro
dP-IRE1α* = target: T2, dP-IRE1α* (Homo sapiens, UniProt O75460); assay: XBP1 RNA minisubstrate RNase assay with dephosphorylated IRE1α*; assay type: biochemical; details: of the levels of IRE1α*; increasing APY29
T2 construct: human IRE1α (residues 469-977, IRE1α*); made in house; host or cells: SF9 insect cells, then λ-phosphatase (NEB) treatment
T2 sequence (O75460 469-977): as above
Excerpt: Reactions were quenched by addition of 4 M urea at different time points and then were subjected to urea 6% PAGE analysis.

IRE1α* [6] = target: T1, IRE1α*; assay: DSS crosslinking, oligomer/monomer ratio of IRE1α*; assay type: biochemical; details: saturating inhibitor, DSS crosslinker
IRE1α* [7] = target: T1, IRE1α*; assay: ICAT cysteine footprinting (alkylation rates); assay type: binding; details: inhibitor 20 μM
Excerpt: FIGS. 3A-3D. Characterization of GP146's interaction with the ATP-binding site of IRE1α. (FIG. 3A) A crystal structure of the kinase domain of human IRE1α bound to ADP; the native cysteine residues that were monitored using the ICAT footprinting method are labeled and shown as thick rods and the DFG-motif is shown as thin bars; cys715 is part of the hinge region of IRE1α and its side chain partially occupies the ATP-binding site; cys645 is in the activation loop, two residues away from the DFG-motif; cys572 is located on the top of the N-terminal lobe of the catalytic domain and is distant from the ATP-binding site.
As Cys645 and Cys715 are located within the ATP-binding cleft of IRE1α, the accessibility of these residues would be expected to be affected by ligands that occupy this site, while Cys572 is a solvent-exposed residue located on the top of the N-terminal lobe of the kinase.

[8] = Compound toxicity / proliferative blocks in cells; assay type: cell-based
IRE1α* (P830L) = target: T3, IRE1α* (P830L) (Homo sapiens, UniProt O75460, P830L); assay: IRE1α* (P830L) cancer mutant: kinase, RNase, oligomeric state in vitro; assay type: biochemical
T3 construct: human IRE1α (residues 469-977, IRE1α*) or equivalent IRE1α mutants; made in house; host or cells: SF9 insect cells, Bac-to-Bac baculovirus
T3 sequence (O75460 469-977 P830L): as the sequence (O75460 469-977) above, with P362L counted along it
Excerpt: Compared to IRE1α* (WT), IRE1α* (P830L) has reduced kinase activity, as the full-length protein does in vivo. […] IRE1α* (P830L) cannot cleave a FRET-quenched XBP1 RNA mini-substrate (Han et al., 2009), consistent with reduced RNase activity in vivo.
A construct containing the cytosolic kinase and RNase domains of human IRE1α (residues 469-977, IRE1α*) or equivalent IRE1α mutants was expressed in SF9 insect cells using the Bac-to-Bac baculovirus expression system (Invitrogen) as described (Wang et al., 2012). […] (NEB)-treated dephosphorylated IRE1α* (dP-IRE1α*) was also prepared and all the crosslinking experiments were performed as described (Wang et al., 2012). The RNase assay using 5′FAM-3′BHQ-labeled XBP1 single stem-loop minisubstrate (5′FAM-[…]-3′BHQ, from Dharmacon) (SEQ ID NO:22), and the IRE1α*auto-phosphorylation kinase assay were both done as described (Wang et al., 2012). The ability of KIRA6 to inhibit the catalytic activity of Erk2, JNK2, JNK3, PKA, and Piml was determined using previously reported assay conditions (Hill et al., 2012). Internally ^32P-labelled RNAs (mouse XBP1 RNA and Ins2 RNA, as described in (Han et al., 2009), and rat rhodopsin mRNA) were also used as substrates. For time-course determination, IRE1α* proteins (16 nM) were incubated with or without 10 μM 1NM-PP1 for 20 min prior to addition of 20 nM radio-labeled RNAs. Reactions were quenched by addition of 4 M urea at different time points and then were subjected to urea 6% PAGE analysis. […] The cleavage buffer and general manipulation are the same as described (Wang et al., 2012). cDNA for rat rhodopsin was purchased from Invitrogen and amplified by PCR using primers: 5′-[…]-3′ (forward) (SEQ ID NO:23) and 5′-[…]-3′ (reverse) (SEQ ID NO:24). RNA was in vitro transcribed, cleaved by IRE1α*, and the cleavage sites mapped as described (Wang et al., 2012).

yeast and murine IRE1α = details: cited from earlier work
[9] = tested on: panel of kinases (Src, Abl); assay: Counter-screen against a panel of kinases; assay type: biochemical; details: 12 kinases in this panel
IRE1α* [10] = target: T1, IRE1α*; assay: IRE1α* kinase assay (96-well dot blot, 32γ-ATP, STK peptide substrate 2); assay type: biochemical
Procedure: FIGS. 16A-16C. Divergent modulation of IRE1α RNase activity using distinct classes of kinase inhibitors. (FIG. 16A) KIRA6 inhibition of IRE1α* kinase activity. IC50 values determined by fitting percent kinase activity (n=3); Urea PAGE of competition cleavage by IRE1α* of XBP1 RNA mini-substrate (FIG. 16B) and α^32P-labeled Ins2 RNA (FIG. 16C), under indicated [KIRA6]; IC50s determined by fitting in-gel fluorescence intensities (XBP1) and phosphorimager (Ins2).
KIRAs are tested for ability to inhibit IRE1α* kinase and RNase activities in vitro. The XBP1 minisubstrate assay shown in FIGS. 1B-1C, is amenable to 96- or 384-well format, and is used to determine RNase IC50s. In parallel, kinase IC50s for all KIRAs are determined in a 96-well dot blot assay with 32γ-ATP and STK peptide substrate 2 as substrates. Time-dependence of inhibition is determined for all electrophile-containing KIRAs. RNase and kinase assays have been used to profile the KIRAs in FIG. 13, showing a strong correlation between kinase and RNase IC50s. […] Thus, the structure-based design strategy uses these two kinases as counter targets (described below).

[11] = varying concentration of the tested inhibitor

Compound: CC(C)(C)n1nc(Cc2cccc3ccccc23)c2c(N)ncnc21 [1NM-PP1]
- RNase activity of kinase-inactive IRE1α mutants [1]: able to rescue the RNase activity of IRE1α mutants that lack kinase activity

Compound: CNc1nccn2c(C(C)(C)C)nc(-c3ccc(NC(=O)Nc4cccc(C(F)(F)F)c4)c4ccccc34)c12 [(NMe)KIRA6, 1-(4-(8-methylamino-3-tert-butylimidazo[1,5-a]pyrazin-1-yl)naphthalen-1-yl)-3-(3-(trifluoromethyl)phenyl)urea]
- XBP1 mRNA splicing in INS-1 cells (endogenous IRE1α [2]; by Tm, compound at 10 μM): inhibits neither output
- endogenous IRE1α auto-phosphorylation in INS-1 cells (endogenous IRE1α [3]; by Tg, compound at 10 μM): inhibits neither output

Compound: c1cc(Nc2cc(C3CC3)[nH]n2)nc(Nc2ccc3nc[nH]c3c2)n1 [APY29]
- IC50 (IRE1α* [4]): 280 nM
- IRE1α* RNase activity (XBP1 RNA cleavage), effect in words (IRE1α* [5]): acting as an activator
- RNase competition, IRE1α* under fixed KIRA3 (GP146) (IRE1α* [5]; [11]): progressively reverse IRE1α* RNase inhibition caused by a fixed concentration of KIRA3
- RNase competition, IRE1α* under fixed STF-083010 (IRE1α* [5]; [11]): cannot rescue direct inhibition caused by the covalent RNase modifier STF-083010
- dP-IRE1α* cleavage of XBP1 mini-substrate restored, plateau (dP-IRE1α*): ~60%
- IRE1α* oligomerization (oligomer/monomer ratio) (IRE1α* [6]): further enhances
- accessibility of Cys572 (IRE1α* [7]): no detectable difference
- accessibility of Cys645 to alkylating agents (IRE1α* [7]): highly shielded from alkylating agents
- accessibility of Cys715 (rate of alkylation) (IRE1α* [7]): slowing the rate of alkylation
- toxicity in cells [8]: pleiotropic toxicity, including proliferative blocks at low micromolar concentrations
- RNase activity of IRE1α* (P830L) (IRE1α* (P830L)): partially rescue RNase activity
- autophosphorylation by IRE1α* (P830L) (IRE1α* (P830L)): suppresses residual autophosphorylation
- oligomeric state of IRE1α* (P830L) (IRE1α* (P830L)): increases IRE1α* (P830L)'s oligomeric state
- RNase of yeast and murine IRE1α (yeast and murine IRE1α): directly activate the RNase of yeast and murine IRE1α

Compound: CC(C)c1nc(-c2ccc(NC(=O)c3cccc(C(F)(F)F)c3)c3ccccc23)c2c(N)nccn12 [GP146(Am), N-(4-(8-amino-3-isopropylimidazo[1,5-a]pyrazin-1-yl)naphthalen-1-yl)-3-(trifluoromethyl)benzamide]
- IRE1α* RNase activity (XBP1 RNA cleavage), effect in words (IRE1α* [5]): markedly diminished ability to inhibit the RNase activity of IRE1α compared to GP146

Compound: CNc1nccn2c(C(C)C)nc(-c3ccc(NC(=O)Nc4cccc(C(F)(F)F)c4)c4ccccc34)c12 [GP146(NMe), 1-(4-(3-isopropyl-8-(methylamino)imidazo[1,5-a]pyrazin-1-yl)naphthalen-1-yl)-3-(3-(trifluoromethyl)phenyl)urea]
- IRE1α* RNase activity (XBP1 RNA cleavage), effect in words (IRE1α* [5]): markedly diminished ability to inhibit the RNase activity of IRE1α compared to GP146
- XBP1 mRNA splicing (IRE1α RNase activity) in INS-1 cells (endogenous IRE1α [2]; thapsigargin (Tg) 6 nM): does not block the splicing of XBP1 mRNA

Compound: CC(C)c1nc(-c2ccc(NC(=O)Nc3cccc(C(F)(F)F)c3)cc2)c2c(N)nccn12 [KIRA2, 1-(4-(8-amino-3-isopropylimidazo[1,5-a]pyrazin-1-yl)phenyl)-3-(3-(trifluoromethyl)phenyl)urea]
- IRE1α* RNase activity (XBP1 RNA cleavage), effect in words (IRE1α* [5]): significant increase in overall potency

Compound: CC(C)c1nc(-c2ccc(NC(=O)Nc3cccc(C(F)(F)F)c3)c3ccccc23)c2c(N)nccn12 [KIRA3, 1-(4-(8-amino-3-isopropylimidazo[1,5-a]pyrazin-1-yl)naphthalen-1-yl)-3-(3-(trifluoromethyl)phenyl)urea]
- off-target inhibition in kinase panel [9]: the only off-target inhibition observed is for the tyrosine kinases Src and Abl
- endogenous IRE1α auto-phosphorylation in INS-1 cells (endogenous IRE1α [3]; ER stress (Tg)): abrogates IRE1α autophosphorylation

Compound: CC(C)(C)c1nc(-c2ccc(NC(=O)Nc3cccc(F)c3)c3ccccc23)c2c(N)nccn12 [KIRA7]
- IC50 (IRE1α* [5]; IRE1α*): < 30 nM
- IC50 (IRE1α* [10]): 35 nM
